Target: T1, S1P1 (Homo sapiens, UniProt P21453)
T1 construct: expressed in transfected cells; host or cells: CHO cells (membranes)
Test: 35S-GTPγS binding, S1P1 membranes
Type: biochemical
Conditions: membranes from CHO cells expressing S1P1; 60 min 30° C.
Method: Receptor binding assay: Membranes were prepared from CHO cells expressing S1P1 or S1P3 for use in ligand and […] binding studies. Cells were suspended in 50 mM TRIS, pH 7.4, 2 mM EDTA, 250 mM Sucrose (buffer A) and 1× Complete protease inhibitor cocktail (Roche), and disrupted at 4° C. by N2 decompression using a cell disruption bomb (Parr Instrument). Following centrifugation at 1000 RPM for 10 min at 4° C., the supernatant was suspended in buffer A and centrifuged again at 19000 RPM for 60 min at 4° C. The pellet was then suspended in 10 mM HEPES, pH 7.4, 1 mM EDTA, 250 mM Sucrose (Buffer B), and 1× Complete EDTA-free protease inhibitor cocktail and homogenized using a potter. Membranes were flash frozen in liquid N2 and stored at −80° C. [33P]sphingosine 1-phosphate (3000 Ci/mmol; American Radiolabeled Chemicals, Inc.) was added to test compounds in DMSO. Membranes and WGA SPA beads (GE Healthcare) were added to give a final volume of 100 μl in 96-well plates with assay concentrations of 25 pM or 10 pM [33P]sphingosine 1-phosphate (respectively for S1P1 or S1P3), 50 mM HEPES, pH 7.5, 5 mM MgCl2, 100 mM NaCl, 0.4% fatty acid-free BSA, 1-5 μg/well of proteins and 100 μg/well of WGA SPA beads. Binding was performed for 60 min at RT on a shaker and bound radioactivity was measured on a PerkinElmer 1450 MicroBeta counter. Specific binding was calculated by subtracting remaining radioactivity in the presence of 1000-fold excess of unlabeled S1P. Binding data were analyzed using the GraphPad Prism program.
Measurements of ^35S-GTPγS Binding: Membranes (1 to 10 μg protein) prepared as described above, were incubated in 96-well Scintiplates (PerkinElmer) with test compounds diluted in DMSO, in 180 μl of 20 mM HEPES, pH 7.4, 10 mM MgCl2, 2 μg/well Saponin, 0.2% fatty acid free BSA (Assay buffer), 140 mM NaCl and 1.7 μM GDP. The assay was initiated with the addition of 20 μl of 1.5 nM [35S]-GTPγS (1100 Ci/mmol; GE Healthcare) in assay buffer. After 60 min incubation at 30° C. on a shaker, plates were centrifuged for 10 min at 2000 RPM. Supernatant was discarded and membrane bound radioactivity was measured on a PerkinElmer 1450 MicroBeta counter. Triplicate samples were averaged and expressed as % response relative to S1P activation in absence of compound (n=2).

T1 sequence (P21453 whole entry, species assumed): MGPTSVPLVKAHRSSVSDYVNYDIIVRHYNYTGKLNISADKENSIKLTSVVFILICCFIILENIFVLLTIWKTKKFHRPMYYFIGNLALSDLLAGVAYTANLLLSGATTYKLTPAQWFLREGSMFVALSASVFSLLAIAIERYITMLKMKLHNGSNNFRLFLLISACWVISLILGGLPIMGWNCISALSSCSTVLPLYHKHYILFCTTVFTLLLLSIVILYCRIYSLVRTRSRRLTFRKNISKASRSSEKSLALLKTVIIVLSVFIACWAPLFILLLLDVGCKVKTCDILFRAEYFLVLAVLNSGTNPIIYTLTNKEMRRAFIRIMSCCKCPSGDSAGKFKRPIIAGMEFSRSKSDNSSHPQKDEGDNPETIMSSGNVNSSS

Row | Compound | EC50 [nM]
1 | Cc1ccccc1-c1ccc(-c2nc(-c3ccc(C(=O)O)c(F)c3)no2)cc1 [Example 5, 2-fluoro-4-[5-(2′-methylbiphenyl-4-yl)-1,2,4-oxadiazol-3-yl]benzoic acid] | 5140
2 | Cc1cc(-c2nc(-c3ccc(C(=O)O)c(F)c3)no2)ccc1-c1ccccc1 [Example 6, 2-fluoro-4-[5-(2-methylbiphenyl-4-yl)-1,2,4-oxadiazol-3-yl]benzoic acid] | 2920
3 | Cc1cc(-c2nc(-c3ccc(C(=O)O)c(F)c3)no2)ccc1-c1ccccc1C(F)(F)F [Example 8, 2-fluoro-4-{5-[2-methyl-2′-(trifluoromethyl)biphenyl-4-yl]-1,2,4-oxadiazol-3-yl}benzoic acid] | 850
4 | O=C(O)c1ccc(-c2noc(-c3ccc(N4CCOCC4)c(C(F)(F)F)c3)n2)cc1F [Example 17, 2-fluoro-4-{5-[4-morpholin-4-yl-3-(trifluoromethyl)phenyl]-1,2,4-oxadiazol-3-yl}benzoic acid] | 3450
5 | COc1ccc(-c2ccc(-c3nc(-c4ccc(C(=O)O)c(F)c4)no3)cc2C)c(OC)c1 [Example 20, 4-[3-(2′,4′-dimethoxy-2-methylbiphenyl-4-yl)-1,2,4-oxadiazol-3-yl]-2-fluorobenzoic acid] | 10900
6 | Cc1cc(-c2nc(-c3ccc(C(=O)O)c(F)c3)no2)ccc1-c1c(C)noc1C [Example 25, 4-{5-[4-(3,5-dimethylisoxazol-4-yl)-3-methylphenyl]-1,2,4-oxadiazol-3-yl}-2-fluorobenzoic acid] | 14200
7 | Cc1cc(-c2nc(-c3ccc(C(=O)O)c(F)c3)no2)ccc1-c1ccccc1O [Example 32, 2-fluoro-4-[5-(2′-hydroxy-2-methylbiphenyl-4-yl)-1,2,4-oxadiazol-3-yl]benzoic acid] | 2920
8 | COc1cc(-c2nc(-c3ccc(S(N)(=O)=O)cc3)no2)ccc1-c1cscc1C [Example 39, 4-{5-[3-methoxy-4-(4-methyl-3-thienyl)phenyl]-1,2,4-oxadiazol-3-yl}benzenesulfonamide] | 2.9
9 | Cc1ccccc1-c1ccc(-c2nc(-c3ccc(S(N)(=O)=O)cc3)no2)cc1C [Example 40, 4-[5-(2,2′-dimethylbiphenyl-4-yl)-1,2,4-oxadiazol-3-yl]benzenesulfonamide] | 10
10 | Cc1ccccc1-c1ccc(-c2nc(-c3ccc(O)c(C(=O)O)c3)no2)cc1C [Example 43, 5-[5-(2,2′-dimethylbiphenyl-4-yl)-1,2,4-oxadiazol-3-yl]-2-hydroxybenzoic acid] | 4360
11 | COc1cc(C(=O)O)ccc1-c1noc(-c2ccc(-c3ccccc3C)c(C)c2)n1 [Example 45, 4-[5-(2,2′-dimethylbiphenyl-4-yl)-1,2,4-oxadiazol-3-yl]-3-methoxybenzoic acid] | 4480
12 | CC(C)COc1ncc(-c2nc(-c3ccc(OCC(=O)O)c(F)c3)no2)cc1Cl [Example 49, {4-[5-(5-chloro-6-isobutoxypyridin-3-yl)-1,2,4-oxadiazol-3-yl]-2-fluorophenoxy}acetic acid] | 1280
13 | C#CCOc1ncc(-c2nc(-c3ccc(OCC(=O)O)c(F)c3)no2)cc1Cl [Example 51, (4-{5-[5-chloro-6-(prop-2-yn-1-yloxy)pyridin-3-yl]-1,2,4-oxadiazol-3-yl}-2-fluorophenoxy)acetic acid] | 2020
14 | Cc1ccccc1-c1ccc(-c2nc(-c3ccc(C(=O)O)c(F)c3)no2)cc1CO [Example 58, 2-fluoro-4-{5-[2-(hydroxymethyl)-2′-methylbiphenyl-4-yl]-1,2,4-oxadiazol-3-yl}benzoic acid] | 2930
15 | Cc1ccccc1-c1ccc(-c2nc(-c3ccc(C(=O)O)c(F)c3)no2)cc1COCC(C)C [Example 60, 2-fluoro-4-{5-[2-(isobutoxymethyl)-2′-methylbiphenyl-4-yl]-1,2,4-oxadiazol-3-yl}benzoic acid] | 3700
16 | CC(C)COc1ccc(-c2nc(-c3ccc(C(=O)O)c(F)c3)no2)cc1NS(C)(=O)=O [Example 64, 2-fluoro-4-(5-{4-isobutoxy-3-[(methylsulfonyl)amino]phenyl}-1,2,4-oxadiazol-3-yl)benzoic acid] | 4720

More lines, in order of falling EC50, values ahead:

Row | EC50 [nM] | Compound
17 | 10400 | COc1ccc(OC)c(-c2ccc(-c3nc(-c4ccc(C(=O)O)c(F)c4)no3)cc2C)c1 [Example 24, 4-[3-(2′,5′-dimethoxy-2-methylbiphenyl-4-yl)-1,2,4-oxadiazol-3-yl]-2-fluorobenzoic acid]
18 | 10400 | CC(=O)Nc1cc(-c2nc(-c3ccc(C(=O)O)c(F)c3)no2)ccc1N1CCCCC1C (centres unmarked) [Example 65, 4-{5-[3-(acetylamino)-4-(2-methylpiperidin-1-yl)phenyl]-1,2,4-oxadiazol-3-yl}-2-fluorobenzoic acid]
19 | 10000 | CCCN(CC(C)C)c1ccc(-c2nc(-c3ccc(C(=O)O)c(F)c3)no2)cc1NS(C)(=O)=O [Example 66, 2-fluoro-4-(5-{4-[isobutyl(propyl)amino]-3-[(methylsulfonyl)amino]phenyl}-1,2,4-oxadiazol-3-yl)benzoic acid]
20 | 9740 | O=C(O)c1ccc(-c2noc(-c3ccc([N+](=O)[O-])c(N4CCCCC4)c3)n2)cc1F [Example 21, 2-fluoro-4-[5-(4-nitro-3-piperidin-1-ylphenyl)-1,2,4-oxadiazol-3-yl]benzoic acid]
21 | 7000 | Cc1cc(-c2nc(-c3ccc(C(=O)O)c(F)c3)no2)ccc1N1CCOCC1 [Example 18, 2-fluoro-4-[5-(3-methyl-4-morpholin-4-ylphenyl)-1,2,4-oxadiazol-3-yl]benzoic acid]
22 | 5180 | O=C(O)c1ccc(-c2noc(-c3ccc(N4CCCCC4)c([N+](=O)[O-])c3)n2)cc1F [Example 14, 2-fluoro-4-[5-(3-nitro-4-piperidin-1-ylphenyl)-1,2,4-oxadiazol-3-yl]benzoic acid]
23 | 2400 | Cc1cc(-c2nc(-c3ccc(C(=O)O)c(F)c3)no2)ccc1-c1ccccc1-c1ccccc1 [Example 31, 2-fluoro-4-[5-(2-methyl-1,1′:2′,1″-terphenyl-4-yl)-1,2,4-oxadiazol-3-yl]benzoic acid]
24 | 2270 | COc1cc(-c2noc(-c3ccc(-c4ccccc4C)c(C)c3)n2)ccc1C(=O)O [Example 46, 4-[5-(2,2′-dimethylbiphenyl-4-yl)-1,2,4-oxadiazol-3-yl]-2-methoxybenzoic acid]
25 | 2240 | Cc1ccccc1-c1ccc(-c2nc(-c3ccc(C(=O)O)c(F)c3)no2)cc1COCC1CC1 [Example 61, 4-(5-{2-[(cyclopropylmethoxy)methyl]-2′-methylbiphenyl-4-yl}-1,2,4-oxadiazol-3-yl)-2-fluorobenzoic acid]
26 | 2060 | Cc1cc(-c2nc(-c3ccc(C(=O)O)c(F)c3)no2)ccc1N1CCCCC1 [Example 16, 2-fluoro-4-[5-(3-methyl-4-piperidin-1-ylphenyl)-1,2,4-oxadiazol-3-yl]benzoic acid]
27 | 1690 | Cc1ccccc1-c1ccc(-c2nc(-c3ccc(C(=O)O)cc3)no2)cc1C [Example 42, 4-[5-(2,2′-dimethylbiphenyl-4-yl)-1,2,4-oxadiazol-3-yl]benzoic acid]
28 | 1540 | O=C(O)COc1ccc(-c2noc(-c3cnc(OCC4CC4)c(Cl)c3)n2)cc1F [Example 52, (4-{5-[5-chloro-6-(cyclopropylmethoxy)pyridin-3-yl]-1,2,4-oxadiazol-3-yl}-2-fluorophenoxy)acetic acid]
29 | 1450 | Cc1cc(-c2nc(-c3ccc(O)c(C(=O)O)c3)no2)ccc1-c1cscc1C [Example 44, 2-hydroxy-5-{5-[3-methyl-4-(4-methyl-3-thienyl)phenyl]-1,2,4-oxadiazol-3-yl}benzoic acid]
30 | 1090 | COCC1CCCN1c1ncc(-c2nc(-c3ccc(S(N)(=O)=O)cc3)no2)cc1C (centres unmarked) [Example 41, 4-(5-{6-[2-(methoxymethyl)pyrrolidin-1-yl]-5-methylpyridin-3-yl}-1,2,4-oxadiazol-3-yl)benzenesulfonamide]
31 | 180 | CC1CCCCN1c1ccc(-c2nc(-c3ccc(F)c(C(=O)O)c3)no2)cc1C(F)(F)F (centres unmarked) [Example 33, 2-fluoro-5-{5-[4-(2-methylpiperidin-1-yl)-3-(trifluoromethyl)phenyl]-1,2,4-oxadiazol-3-yl}benzoic acid]
32 | 1.5 | CC1CCCCN1c1ccc(-c2nc(-c3ccc(S(N)(=O)=O)cc3)no2)cc1C(F)(F)F (centres unmarked) [Example 38, 4-{5-[4-(2-methylpiperidin-1-yl)-3-(trifluoromethyl)phenyl]-1,2,4-oxadiazol-3-yl}benzenesulfonamide]
